Reference: article PMC5933457, “Probing biological activity through structural modelling of ligand-receptor interactions of 2,4-disubstituted thiazole retinoids” (Bioorganic & Medicinal Chemistry, 2018)
Where two headings read alike, the source gives them in different places.

What was measured:
[1] = molecular target: T1, RARα ligand-binding domain (GST-RAR-α-LBD) (Homo sapiens, UniProt P10276); assay: LanthaScreen TR-FRET RARα co-activator (receptor binding) assay; type: biochemical; conditions: for binding-curve upper asymptote (coactivator recruitment), RARα: in words, Fig. 6A; for EC50: read-out: EC50 (95% confidence range) RARα
T1 construct: purchased Invitrogen
T1 sequence (P10276 183-417 limits assumed): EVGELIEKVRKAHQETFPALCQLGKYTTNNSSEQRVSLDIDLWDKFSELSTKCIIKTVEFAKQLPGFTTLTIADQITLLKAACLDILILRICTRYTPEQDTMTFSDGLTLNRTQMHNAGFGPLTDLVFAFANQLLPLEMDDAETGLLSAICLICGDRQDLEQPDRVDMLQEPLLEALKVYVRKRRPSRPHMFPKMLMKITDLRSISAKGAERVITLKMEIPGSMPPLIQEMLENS
Method: (§1) These predictions were tested through a receptor-binding assay for each RAR isotype (Fig. 6), where the assay signal is dependent on two parameters: the binding affinity of ligand to the RAR LBD, and the affinity of the coactivator for the ligand-LBD complex. For this assay, binding curves and variation in level of the upper asymptote can reflect differences in co-activator affinity for the ligand-LBD complex; variation in affinity of ligand for LBD shifts the midpoint (EC50) of the binding curve, whereas changes in the level of the upper asymptote may result from changes in coactivator affinity for the ligand-LBD complex alone, or in combination with changes in affinity for ligand with LBD.[23]
(§2) The binding interaction of each retinoid with RARα, β and γ were determined in vitro by time-resolved fluorescence resonance energy transfer (TR-FRET) using the LanthaScreen TR-FRET RARα, RARβ, and RARγ co-activator assays according to the manufacturer’s (Invitrogen™) instructions.[23] This uses a terbium-labeled anti-GST antibody, a fluorescein-labeled co activator peptide, and RARα/β/γ ligand-binding domains (LBD) that are tagged with glutathione-S-transferase (GST) in a homogenous assay format. All experiments were performed in black, 384-well low-volume plates in the dark at RT with a 4 h incubation time. The final assay volume was 20 μL and all dilutions were carried out using TR-FRET assay buffer, with a final DMSO concentration of 1%. A mixture of either 3.5 nM GST-RAR-α-LBD or 2.5 nM GST-RAR-β-LBD or 3 nM GST-RAR-γ-LBD with 62.5 nM Tb-anti GST antibody and 30 μM fluorescein-labeled peptide and retinoid or DMSO control was added to each of the wells. Each ligand assay was performed in duplicate and measured using a PHERAstar FS Microplate Reader (BMG Labtech, Ortenberg, Germany) with instrument settings as described in the manufacturer’s instructions for LanthaScreen assays. The TR-FRET signal was expressed as the ratio of the signals at 520 nm and 490 nm. The data were fitted to a three-parameter ligand-binding curve using SigmaPlot (version 12.5, Systat Software Inc., San Jose CA) and normalized to the lower asymptote of each binding curve. […] Since the assay involves interactions between ligand and LBD, and ligand-dependent interactions between the LBD and fluorescein-labeled co activator, the binding assay data were interpreted by simulating these coupled chemical reactions using the biochemical simulator COPASI version 4.3.[23], [54]
(§3) The readout of the Lanthascreen TR-FRET binding assay is based on a Forster resonance energy transfer (FRET) signal generated from the interaction between a terbium-labelled anti-glutathione-S-transferase (GST) antibody and a fluorescein-labelled coactivator peptide. The RAR ligand-binding domain (LBD) is a GST fusion protein and interaction between the LBD and the fluorescein-labelled coactivator peptide is driven by the binding of ligand to the LBD, and detected by the FRET signal from the terbium/fluorescein interaction when the terbium-labelled anti-GST binds the LBD fusion protein. The output of the assay thus relies on two binding interactions: ligand with LBD, and ligand-bound LBD with the coactivator peptide. As both interactions may be affected by the fit of ligand to the binding pocket of the LBD, we used the biochemical pathway simulator COPASI^1 to build a simple model of how the FRET signal output in the assay will vary according to differential changes in the kinetics of the two binding interactions. Reactions were modelled deterministically using mass-action kinetics described by ordinary differential equations (ODE) within COPASI.^1 This model enables us to assess the effect of different rate constants and varying ligand concentration on the formation of the final ternary complex that is the read-out from the Lanthascreen TR-FRET assay.

[2] = test system: TERA2.cl.SP12 stem cells; assay: Real-time PCR for neuronal markers NeuroD1 and PAX6; type: cell-based, human; conditions: 10 μM, Fig. 7B
Method: Second, NeuroD1 and PAX6 are retinoid-induced transcription factors involved in regulating neuronal differentiation,[49], [50] and are expressed in neurons derived from TERA2.cl.SP12 stem cells.
(§4) Real time PCR was carried out immediately after treatment on both cell line lysates with 0.25% trypsin–EDTA. TERA-2.cl.SP12 cells were seeded at a density of 1 × 10^6 cells per 25 cm^2 flask, 12–24 h before treatment. […] SH-SY5Y cells were seeded at a density of 1 × 10^6 cells per 25 cm^2 flask, 12–24 h before treatment. […] Commercial RNA extraction kits (Qiagen) and reverse transcription (Applied Biosystems) kits were purchased and procedures used according to the manufacturer instructions. Real time PCR was performed using the TaqMan® Universal PCR Master Mix (Life technologies) and TaqMan® gene expression system (Applied Biosystems) based on probe sets to the specific genes to be analysed. Genecodes used are as follows: RARβ (Hs00233407_m1), CYP26-A1 (Hs00175627_m1), RARα (Hs00940448_g1), RARγ (Hs01559234_m1), PAX-6 (Hs01088112_m1), NeuroD1 (Hs01922995_s1). GADPH (Hs02758991_g1) and ACTB (Hs99999903_m1) were used as internal control genes for TERA-2.cl.SP12 and SH-SY5Y, respectively.

[3] = test system: TERA2.cl.SP12 cells; assay: Immunocytochemistry for A2B5, TUJ-1 and cytokeratin 8; type: cell-based, human
Method: Third, we carried out assessment of protein expression using immunofluorescent techniques on cultures of TERA2.cl.SP12 cells treated with retinoids.
TERA2.cl.SP12 cells were seeded at 5000 cells per well on poly-D-lysine (25 μg/ml) coated cover slips in 6-well plates. Cells were treated with each retinoid at a concentration of 10 μM for 7, 14 and 21 days (the media was changed every 3–4 days). Cells were also treated with 1% DMSO for the same time periods as a […] control. At the end of the treatment period, cells were fixed (4% para-formaldehyde in PBS for 30 min at room temperature (RT) and rinsed with PBS. One set of experiments was used for the cell surface marker A2B5 (diluted 1:100, R&D systems), and the other set was prepared for intracellular staining using 1% Triton-X-100 (Sigma Aldrich) in PBS as a permeabilizing agent for 10 min at RT. Non-specific labeling was blocked by incubation with a solution of 1% goat serum (Sigma Aldrich) containing 0.2% Tween-20 (Sigma Aldrich) in PBS for one hour at RT. The primary antibodies β-III tubulin antibody (TUJ-1) (1:200, Affymetrix eBioscience) and CK-8 antibody (1:500, Affymetrix eBioscience) were diluted in blocking solution and incubated with the cells for 1 h at RT. After washing three times for 15 min with PBS, cells were incubated for 1 h in the dark with anti-mouse FITC-conjugated secondary antibody IgM (1:128, Sigma Aldrich) for A2B5 staining, and anti-mouse Alexafluor 488 IgG (1:600, Invitrogen) for TUJ-1 and CK-8 staining. Hoechst 33,342 nuclear staining dye (1:1000, Molecular Probes) was dissolved in blocking solution after the secondary antibody staining step for nuclear staining.
Immunocytofluorescent images of fixed cells were visualized using a Leica SP5 confocal microscope. Scale bars are shown at 25 μm.

[4] = test system: SH-SY5Y human neuroblastoma cells; assay: Retinoid-induced gene expression (RARα, RARβ, RARγ, CYP26A1) by real-time PCR; type: cell-based
Method: As an additional assay of biological activity, short-term changes in expression of four genes in SH-SY5Y cells was employed; a neuroblastoma-derived lineage that undergoes neuronal differentiation in response to retinoid treatment. The four genes assayed, RARα, RARβ, RARγ and CYP26A, have RAREs associated with their promoters and may be directly regulated by retinoids.[51], [52]
as §4

[5] = molecular target: T2, RARβ ligand-binding domain (GST-RAR-β-LBD) (Homo sapiens, UniProt P10826); assay: LanthaScreen TR-FRET RARβ co-activator (receptor binding) assay; type: biochemical; conditions: for EC50: estimated EC50, TR-FRET co-activator assay, 4 h incubation, read-out: EC50 (95% confidence range) RARβ; for binding-curve upper asymptote (coactivator recruitment), RARβ: Fig. 6B
T2 construct: purchased Invitrogen
T2 sequence (P10826 183-417 limits assumed): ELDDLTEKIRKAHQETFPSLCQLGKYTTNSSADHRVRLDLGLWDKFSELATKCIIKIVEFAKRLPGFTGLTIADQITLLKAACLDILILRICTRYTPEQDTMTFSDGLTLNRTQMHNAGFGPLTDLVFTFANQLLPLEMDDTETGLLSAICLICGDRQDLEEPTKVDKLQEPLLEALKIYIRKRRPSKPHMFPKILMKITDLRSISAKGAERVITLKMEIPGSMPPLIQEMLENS
Method: as §1, §2, §3

[6] = molecular target: T3, RARγ ligand-binding domain (GST-RAR-γ-LBD) (Homo sapiens, UniProt P13631); assay: LanthaScreen TR-FRET RARγ co-activator (receptor binding) assay; type: biochemical; conditions: for EC50: estimated EC50, TR-FRET co-activator assay, 4 h incubation, read-out: EC50 (95% confidence range) RARγ; for binding-curve upper asymptote (coactivator recruitment), RARγ: in words, Fig. 6C
T3 construct: purchased Invitrogen
T3 sequence (P13631 185-419 limits assumed): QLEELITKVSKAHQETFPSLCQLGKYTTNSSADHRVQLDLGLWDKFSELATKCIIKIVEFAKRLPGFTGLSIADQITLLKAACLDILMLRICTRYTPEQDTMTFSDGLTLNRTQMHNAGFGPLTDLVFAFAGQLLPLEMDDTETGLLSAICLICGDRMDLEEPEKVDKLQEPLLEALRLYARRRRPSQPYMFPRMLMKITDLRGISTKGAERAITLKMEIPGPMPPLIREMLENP
Method: as §1, §2, §3

[7] = test system: TERA2.cl.SP12 embryonal carcinoma stem cells; assay: Flow cytometry of cell-surface differentiation markers SSEA-3, TRA-1–60, A2B5; type: cell-based, human; conditions: 10 μM retinoid, 7 days, compared to ATRA and control cultures, Fig. 7A
Source text: First, we examined neuronal differentiation in pluripotent TERA2.cl.SP12 human embryonal carcinoma stem cells in response to retinoid treatment. TERA2.cl.SP12 cells have been used in previous studies, [29] to test the ability of synthetic retinoids to induce differentiation along a neuronal or an alternative epithelial pathway at long in vitro timescales of up to three weeks. […] Since the parent carboxylic acid (GZ24) had little activity, the response to GZ22 was a real effect of the ester rather than a result of hydrolysis of the parent ester to the carboxylic acid.
The expression of specific cell surface protein markers (SSEA-3, TRA-1–60, A2B5) on TERA2.cl.SP12 was analyzed using flow cytometry as described previously.[53] Briefly, TERA2.cl.SP12 cells, 2 × 10^5 per 25 cm^2 flask, were seeded 12–24 h before treatment with 10 μM retinoid for 7 days. The primary antibodies used were SSEA-3 (diluted 1:10, University of Iowa Hybridoma Bank), TRA-1–60 (diluted 1:50, Abcam) and neural cell marker A2B5 (diluted 1:40, R&D Systems). Labeled cells were analyzed in a Guave EasyCyte Plus System (Millipore) flow cytometer and thresholds determining the numbers of positively expressing cells were set against the negative control antibody, P3X.

Row | Structure (SMILES) | binding-curve upper asymptote (coactivator recruitment), RARα [1] | NeuroD1 mRNA expression, rank order ([2]; after 5 days) | NeuroD1 mRNA expression, rank order ([2]; after 7 days) | induction of PAX6 expression, rank order ([2]; up to 7 days) | expression of epithelial phenotype marker cytokeratin 8 ([3]; 10 μM, 1, 2 and 3 weeks, Fig. 7D) | expression of neuronal differentiation marker A2B5 (immunofluorescence) ([3]; 10 μM, after 7 days, Fig. 7C) | neuronal differentiation by TUJ-1 staining ([3]; 10 μM, up to 3 weeks, Fig. 7C) | induction of RARα and RARγ expression ([4]; 10 μM retinoid, over a 12 h period, Fig. 8A) | induction of RARβ expression, rank order ([4]; dose-response 1 nM to 1 μM, 8 h treatment, all doses, Fig. 8B) | induction of CYP26A1 expression, rank order ([4]; dose-response 1 nM to 1 μM, 8 h treatment, doses <1 μM, Fig. 8B) | EC50 [1] [µM] | EC50 [5] [µM] | binding-curve upper asymptote (coactivator recruitment), RARβ ([5]; in words) | RAR-type selectivity from binding assay ([5]; in words, from EC50 values of Table 1) | EC50 [6] [µM] | binding-curve upper asymptote (coactivator recruitment), RARγ [6] | proportion of cells expressing differentiation markers SSEA-3, TRA-1–60, A2B5 [7] | EC50 ([1]; estimated EC50, TR-FRET co-activator assay, 4 h incubation) [µM]
1 | CC1=C(/C=C/C(C)=C/C=C/C(C)=C/C(=O)O)C(C)(C)CCC1 [ATRA, all-trans-retinoic acid, reference compound] | high curve asymptotes | GZ25 > GZ18 > ATRA | ATRA > GZ25 | GZ25 ≫ ATRA > GZ18 | not detectable | induced | most effective | greatest activity | GZ25 ≫ ATRA > GZ18 | GZ25 > GZ18 > ATRA | – | – | – | – | – | – | – | –
2 | CCOC(=O)c1ccc(-c2nc(-c3ccc4c(c3)C(C)(C)CCC4(C)C)c(C)s2)cc1 [GZ23] | lower asymptotes | – | – | – | – | – | – | – | – | – | 0.0889 | 0.0121 | high asymptotes | surprising selectivity for RARβ | 0.847 | intermediate | very little activity | –
3 | Cc1sc(-c2ccc(C(=O)O)cc2)nc1-c1ccccc1 [GZ24] | lower asymptotes | – | – | – | – | – | – | – | – | – | – | 0.0778 | very low asymptotes | – | 0.109 | intermediate | very little activity | 0.0775
